These results are taken from patent publication US10335409B2 (priority 2012, dated 2019).

What all share (format): cell-based, hepatitis C virus
Assay [1] deals with genotype 1a (H77) stable HCV replicon in Huh-7-derived cells. The experiment in a line: Stable subgenomic HCV replicon EC50, genotype 1a (Renilla luciferase). To be noted: Hepatitis C virus, stable replicon genotype 1a, 72 h, read-out: EC50 1A RLUC. As to the method:
(§1) Antiviral potency (EC50) was determined in both stable subgenomic HCV replicon cell lines and transient-transfected HCV replicon cells. The term half maximal effective concentration (EC50) refers to the concentration of a drug which induces a response halfway between the baseline and maximum after the exposure time specified below.
(§2) Stable subgenomic HCV replicons for genotype 1a, 1b, 2a, 3a, and 4a were established in Huh-7-derived cells as described by Lohmann et al (Lohmann V, Korner F, Koch J, et al Replication of subgenomic hepatitis C virus RNAs in a hepatoma cell line. Science 1999; 285:119-3) Each stable cell line contains a bicistronic HCV replicon that encodes a humanized Renilla luciferase (hRLuc) reporter gene fused to a selectable neomycin-resistance gene, followed by an EMCV IRES and the NS3-NS5B coding region of HCV. […] Luciferase activity was measured as a marker for intracellular HCV replication levels.
(§3) The genotype 1a stable replicon was derived from the H77 HCV strain and contained adaptive mutations P1496L and S2204I. The genotype 1b stable replicon was derived from the Con1 HCV strain and contained adaptive mutations E1202G, T1280I and K1846T. […] The genotype 3a stable replicon was derived from the S52 HCV strain and contained adaptive mutations P1121L, A1198T and S2210I (equivalent to S2204I in genotype 1). The genotype 4a stable replicon was derived from the ED43 HCV strain and contained adaptive mutations Q1691R and S2204I. All replicon cell lines were propagated in Huh-7-derived cells and maintained in Dulbecco's modified Eagle's Medium (DMEM) supplemented with 10% fetal bovine serum (FBS) and 0.5 mg/mL G418.
(§4) To perform EC50 assays, cells from each HCV replicon were dispensed into 384-well plates. Compounds were dissolved in DMSO at a concentration of 10 mM and diluted in DMSO using an automated pipetting instrument. Three-fold serially diluted compounds were directly added to the cells using an automated instrument. […] Seventy-two hours later, cells were lysed and Renilla luciferase activity were quantified as recommended by the manufacturer (Promega-Madison, Wis.). Non-linear regression was performed to calculate EC50 values.

Assay [2] has as its system genotype 1b (Con1) stable HCV replicon in Huh-7-derived cells. The experiment in a line: Stable subgenomic HCV replicon EC50, genotype 1b (Renilla luciferase). Conditions: Hepatitis C virus, stable replicon genotype 1b, 72 h, read-out: EC50 1B RLUC. As to the method: as §1, §2, §3, §4
For orientation: Replicon systems follow genome replication, usually without infectious particles.

The test system of assay [3] is genotype 2a (JFH-1) stable HCV replicon in Huh-7-derived cells. The experiment in a line: Stable subgenomic HCV replicon EC50, genotype 2a (Renilla luciferase). Conditions: Hepatitis C virus, stable replicon genotype 2a, 72 h, read-out: EC50 2A RLUC. As to the method: as §1, §2, §3, §4
Assay [4] has as its system genotype 3a (S52) stable HCV replicon in Huh-7-derived cells. The experiment in a line: Stable subgenomic HCV replicon EC50, genotype 3a (Renilla luciferase). Conditions: Hepatitis C virus, 72 h, read-out: EC50 3A RLUC. Here is the method:
as §1, §2, §3, §4

Assay [5] has as its system genotype 4a (ED43) stable HCV replicon in Huh-7-derived cells. The experiment in a line: Stable subgenomic HCV replicon EC50, genotype 4a (Renilla luciferase). Conditions: Hepatitis C virus, 72 h, read-out: EC50 4A RLUC. As to the method:
as §1, §2, §3, §4

Assay [6] relates to genotype 3a (S52) wild type transient HCV replicon in Huh-7-derived cells. The experiment in a line: Transient-transfected HCV replicon EC50, genotype 3a wild type. Conditions: Hepatitis C virus; transient-transfected replicon genotype 3a wild type, 72 h; read-out: EC50 3A WT.
Assay [7] has as its system genotype 1a (H77) wild type transient HCV replicon in Huh-7-derived cells. The experiment in a line: Transient-transfected HCV replicon EC50, genotype 1a wild type. Conditions: Hepatitis C virus, 72 h, transient-transfected replicon genotype 1a wild type, read-out: EC50 1A WT.
Assay [8] deals with genotype 1a NS3/4a protease inhibitor resistant variant R155K transient HCV replicon in Huh-7-derived cells. The experiment in a line: Transient-transfected HCV replicon EC50, genotype 1a R155K. Conditions: Hepatitis C virus, 72 h, read-out: EC50 1A R155K, transient-transfected replicon genotype 1a R155K resistant variant, 72 h.
The subject of assay [9] is genotype 1b (Con1) wild type transient HCV replicon in Huh-7-derived cells. The experiment in a line: Transient-transfected HCV replicon EC50, genotype 1b wild type. To be noted: Hepatitis C virus, 72 h, transient-transfected replicon genotype 1b wild type, read-out: EC50 1B WT.
Assay [10] deals with genotype 1b NS3/4a protease inhibitor resistant variant D168A transient HCV replicon in Huh-7-derived cells. The experiment in a line: Transient-transfected HCV replicon EC50, genotype 1b D168A. Conditions: Hepatitis C virus, 72 h, read-out: EC50 1B D168A, transient-transfected replicon genotype 1b D168A resistant variant, 72 h.

For `CC[C@@H]1[C@@H]2CN(C(=O)[C@H](C(C)(C)C)NC(=O)O[C@@H]3C[C@H]3CCCCCc3nc4ccc(OC)cc4nc3O2)[C@@H]1C(=O)N[C@]1(C(=O)NS(=O)(=O)C2(C)CC2)C[C@H]1CC` [Example 4, (1aR,5S,8S,9S,10R,22aR)-5-tert-butyl-9-ethyl-N-[(1R,2R)-2-ethyl-1-{[(1-methylcyclopropyl)sulfonyl]carbamoyl}cyclopropyl]-14-methoxy-3,6-dioxo-1,1a,3,4,5,6,9,10,18,19,20,21,22,22a-tetradecahydro-8H-7,10-methanocyclopropa[18,19][1,10,3,6]dioxadiazacyclononadecino[11,12-b]quinoxaline-8-carboxamide], the EC50 in assay [1] was found to be 0.0107 µM; in [2] it was 0.0096 µM; in assay [3], 0.016 µM; in assay [4], 0.271 µM; in [5], 0.0079 µM; in assay [6] it was 0.068 µM. Besides, the EC50 in [7] came to 0.0071 µM; in assay [8] it was 0.02 µM; in [9], 0.0065 µM; in [10], 0.066 µM.

Turning to `CC[C@@H]1[C@@H]2CN(C(=O)[C@H](C(C)(C)C)NC(=O)O[C@@H]3C[C@H]3CCCCC(F)(F)c3nc4ccc(OC)cc4nc3O2)[C@@H]1C(=O)N[C@]1(C(=O)NS(=O)(=O)C2CC2)C[C@H]1CC` [Example 34, (1aR,5S,8S,9S,10R,22aR)-5-tert-butyl-N-{(1R,2R)-1-[(cyclopropylsulfonyl)carbamoyl]-2-ethylcyclopropyl}-9-ethyl-18,18-difluoro-14-methoxy-3,6-dioxo-1,1a,3,4,5,6,9,10,18,19,20,21,22,22a-tetradecahydro-8H-7,10-methanocyclopropa[18,19][1,10,3,6]dioxadiazacyclononadecino[11,12-b]quinoxaline-8-carboxamide], the EC50 in assay [1] came out at 0.012 µM; in assay [2], 0.013 µM; in [3] it was 0.018 µM; in [4], 0.322 µM; in assay [5], 0.0097 µM; in assay [6], 0.046 µM. In addition, the EC50 in assay [7] was 0.015 µM; in assay [8], 0.018 µM; in assay [9], 0.009 µM; in assay [10], 0.064 µM.

For `CC[C@@H]1[C@@H]2CN(C(=O)[C@H](C(C)(C)C)NC(=O)O[C@@H]3C[C@H]3CCCCC(F)(F)c3nc4ccc(OC)cc4nc3O2)[C@@H]1C(=O)N[C@]1(C(=O)NS(=O)(=O)C2(C)CC2)C[C@H]1CC(F)F` [Example 35, (1aR,5S,8S,9S,10R,22aR)-5-tert-butyl-N-[(1R,2S)-2-(2,2-difluoroethyl)-1-{[(1-methylcyclopropyl)sulfonyl]carbamoyl}cyclopropyl]-9-ethyl-18,18-difluoro-14-methoxy-3,6-dioxo-1,1a,3,4,5,6,9,10,18,19,20,21,22,22a-tetradecahydro-8H-7,10-methanocyclopropa[18,19][1,10,3,6]dioxadiazacyclononadecino[11,12-b]quinoxaline-8-carboxamide], the EC50 in assay [1] came out at 0.0091 µM; in [2], 0.011 µM; in assay [3] it was 0.0074 µM; in assay [4], 0.162 µM; in assay [5], 0.0076 µM; in [6], 0.035 µM. In addition, the EC50 was found to be 0.012 µM in [7], 0.017 µM in assay [8], 0.01 µM in [9] and 0.038 µM in assay [10].

Consider `CC[C@@H]1[C@@H]2CN(C(=O)[C@H](C(C)(C)C)NC(=O)O[C@@H]3[C@H]4CC[C@H](C4)[C@H]3CCCCCc3nc4ccc(OC)cc4nc3O2)[C@@H]1C(=O)N[C@]1(C(=O)NS(=O)(=O)C2(C)CC2)C[C@H]1C(F)F` [Example 37, (1R,4S,4aR,8S,11 S, 12S,13R,25aR)-8-tert-butyl-N-[(1R,2R)-2-(difluoromethyl)-1-{[(1-methylcyclopropyl)sulfonyl]carbamoyl}cyclopropyl]-12-ethyl-17-methoxy-6,9-dioxo-2,3,4,4a,6,7,8,9,12,13,21,22,23,24,25,25a-hexadecahydro-1H,11H-1,4:10,13-dimethanoquinoxalino[2,3-k][1,10,3,6]benzodioxadiazacyclononadecine-11-carboxamide], for which the EC50 stood at 0.024 µM in [1]; 0.022 µM in assay [2]; 0.016 µM in [3]; 0.575 µM in [4]; 0.015 µM in assay [5]; 0.069 µM in assay [6]. The EC50 in assay [7] is 0.029 µM; in assay [8], 0.051 µM; in [9], 0.022 µM; in [10], 0.159 µM.

With `CC[C@@H]1[C@@H]2CN(C(=O)[C@H](C(C)(C)C)NC(=O)O[C@]3(C)CCC[C@H]3CCCCCc3nc4ccc(OC)cc4nc3O2)[C@@H]1C(=O)N[C@]1(C(=O)NS(=O)(=O)C2CC2)C[C@H]1C(F)F` [Example 40, (3aR,7S,10S,11S,12R,24aR)-7-tert-butyl-N-[(1R,2R)-1-[(cyclopropylsulfonyl)carbamoyl]-2-(difluoromethyl)cyclopropyl]-11-ethyl-16-methoxy-3a-methyl-5,8-dioxo-1,2,3,3a,5,6,7,8,11,12,20,21,22,23,24,24a-hexadecahydro-10H-9,12-methanocyclopenta[18,19][1,10,3,6]dioxadiazacyclononadecino[11,12-b]quinoxaline-10-carboxamide], the EC50 is 0.025 µM in assay [1]; 0.022 µM in assay [2]; 0.048 µM in assay [3]; 0.36 µM in assay [4]; 0.018 µM in assay [5]; 0.156 µM in assay [6]. The EC50 in assay [7] was 0.017 µM; in assay [8] it was 0.074 µM; in assay [9], 0.0086 µM; in assay [10], 0.129 µM.

With `CC[C@@H]1[C@@H]2CN(C(=O)[C@H](C(C)(C)C)NC(=O)O[C@@H]3C[C@H]3CCCCC(F)c3nc4ccc(OC)cc4nc3O2)[C@@H]1C(=O)N[C@]1(C(=O)NS(=O)(=O)C2(C)CC2)C[C@H]1C(F)F` (stereo partly drawn) [Example 90, (1aR,5S,8S,9S,10R,22aR)-5-tert-butyl-N-[(1R,2R)-2-(difluoromethyl)-1-{[(1-methylcyclopropyl)sulfonyl]carbamoyl}cyclopropyl]-9-ethyl-18-fluoro-14-methoxy-3,6-dioxo-1,1a,3,4,5,6,9,10,18,19,20,21,22,22a-tetradecahydro-8H-7,10-methanocyclopropa[18,19][1,10,3,6]dioxadiazacyclononadecino[11,12-b]quinoxaline-8-carboxamide], the EC50 is 0.012 µM in [1]; 0.0096 µM in [2]; 0.0088 µM in [3]; 0.114 µM in assay [4]; 0.0104 µM in assay [5]; 0.043 µM in [6].

As a reminder, the EC50 is the concentration at which the effect is half-maximal.
